# Reference: patent US4891361A, “Method of minimizing erythema and elastosis” (Sansho Seiyaku Co., Ltd., priority 1985, dated 1990)
# Legend:
# [1] = tested on: mice; conditions: mice (both male and female), orally administered; cited from earlier work
# [2] = tested on: rats; conditions: rats (both male and female), orally administered; cited from earlier work
# [3] = tested on: erythema; experiment: Animal test: severity of UV-induced erythema on rat back; format: in vivo, female Spraguex-Dawley rats; design: key: -: No erythema; ±: Very slight erythema; +: Slight erythema; ++: Medium erythema; +++: Severe erythema; conditions: Test zone, 1% suspension
# Text: (§1) Test Method Ten heads of female Spraguex-Dawley rats of 4-week age were used for the test. The back of each rat was divided into two zones along its center line; one (test zone) was coated with a 1% suspension of kojic acid in a 1% aqueous solution of carboxymethylcellulose, and the other (control zone) was coated with a 1% aqueous solution of carboxymethylcellulose. The coated solution was washed off with hot water one hour later, and each zone was then irradiated with ultraviolet rays for 20 minutes using four UV tubes (Toshiba, Model 20S;E30) placed 62 cm away from the back of each rat. This operation was performed three times a week (on Monday, Wednesday and Friday) and continued over a period of six months. The drug solution and control solution were applied every day (even on days when UV irradiation was omitted). After that, the coating operation alone was continued for an additional six months. Severity of erythema developed on each zone was observed immediately after the start of the test, and 2, 4, 6, 8, 10 and 12 months later.
# [4] = tested on: mouse melanoma B16 cells; experiment: Color fading test of cultured pigment cells (mouse melanoma B16 cells); format: cell-based
# Protocol: Besides the effects described above, the drugs of this invention also have powerful action to inhibit the formation of melanin. To be more specific, the drugs are very effective in inhibiting the formation of dopachrome (a red pigment). […] A color fading test of cultured pigment cells was carried out using kojic acid and kojic acid/β-cyclodextrin inclusion complex.
# B: 20% solution of kojic acid/β-cyclodextrin inclusion complex
# Mouse melanoma B16 cells (hereinafter referred to simply as "B16 cells") (each dish containing […] cells) were grown in Eagle's MEM medium (with 10% fetal calf serum added thereto), (a) in the presence of kojic acid at a concentration of 2.5 mM (Test zone A), (b) in the presence of kojic acid/β-cyclodextrin inclusion complex at a concentration of 2.5 mM (as kojic acid) (Test zone B), and (c) in the absence of any drug (Test zone C), at 37° C. for six days in an atmosphere consisting of 5% CO2 and 95% air. At the end of incubation, each culture was treated with trypsin, then centrifuged at 2000rpm for five minutes to prepare cell pellets, and the degree of blackness was visually compared.
# [5] = tested on: elastosis; experiment: Animal test: UV-induced elastosis, elastic fiber histology (Hematoxylin-Eosin, Weigert and Orcein-Giemsa staining); format: in vivo, female Spraguex-Dawley rats; conditions: Test Zone, 1% suspension, total 10, end of the test (12 months)
# Text: as §1, with “At” for “Severity of erythema developed on each zone was observed immediately after”, “end” for “start”, “test, tissues were excised from the test” for “test,”, “control zones of each rat, paraffin sections of the skin, prepared from the tissues taken out, were subjected to a Hematoxylin-Eosin, Weigert” for “2, 4, 6, 8, 10”, “Orcein-Giemsa staining process, and the conditions of the elastic fiber were observed.” for “12 months later.”
smiles,measurement,setting,value
O=c1cc(CO)occ1O [Kojic acid],LD50,[1],2500 to 3500 mg/kg
same,LD50,[2],2500 to 3500 mg/kg
same,Severity of erythema,"[3]; Coating Alone, month 8",-
same,Severity of erythema,"[3]; Coating Alone, month 10",-
same,Severity of erythema,"[3]; Coating Alone, month 12",-
same,Severity of erythema,"[3]; Irradiation Period, month 0 (immediately after the start)",-
same,Severity of erythema,"[3]; Irradiation Period, month 2",+
same,Severity of erythema,"[3]; Irradiation Period, month 4",++
same,Severity of erythema,"[3]; Irradiation Period, month 6",++
same,"Color fading (degree of blackness of cell pellet, visual)","[4]; 2.5 mM (as kojic acid), six days, 37° C., compared with Test zone C (control)",Considerable color fading
same,Inhibition of the formation of melanin (conclusion from color fading test),[4]; mouse melanoma B16 cells,outstanding effect
same,Number of rats with evaluation + (Slight elastosis),[5],3
same,Number of rats with evaluation ++ (Medium elastosis),[5],1
same,Number of rats with evaluation +++ (Severe elastosis),[5],0
same,Number of rats with evaluation - (No elastosis),[5],3
same,Number of rats with evaluation ± (Very slight elastosis),[5],3
